From EP3046573B1, “AMYLIN ANALOGUES” (Zealand Pharma A/S, priority 2013, dated 2015)
Where two headings read alike, the source gives them in different places. Numbered stars: 1 amine (or outer) side, 2 acyl side, 3 side chain; on linkers, the order of the positions; unused ones are H or OH. Bridge positions count the residues as written; N and C are the ends. Square brackets hold non-standard residues; d marks the D form. Peptide text beside a SMILES is read from it. * marks the point of attachment. C20 diacid = O=C(O)CCCCCCCCCCCCCCCCCCC(=O)*; γGlu = O=C(O)[C@H](CCC(=O)[*:2])N[*:1]; NMeI = CC[C@H](C)[C@H](NC)C(=O)O; Sar = CNCC(=O)O

What was measured:
[1] = biological target: T1, human calcitonin receptor (hCTR2) (Homo sapiens, UniProt P30988); test: hCTR2 assay: induction of cAMP (AlphaScreen cAMP Assay kit) in COS7 cells expressing hCTR2; type: cell-based
T1 construct: expressed in transfected cells
T1 sequence (P30988 25-474): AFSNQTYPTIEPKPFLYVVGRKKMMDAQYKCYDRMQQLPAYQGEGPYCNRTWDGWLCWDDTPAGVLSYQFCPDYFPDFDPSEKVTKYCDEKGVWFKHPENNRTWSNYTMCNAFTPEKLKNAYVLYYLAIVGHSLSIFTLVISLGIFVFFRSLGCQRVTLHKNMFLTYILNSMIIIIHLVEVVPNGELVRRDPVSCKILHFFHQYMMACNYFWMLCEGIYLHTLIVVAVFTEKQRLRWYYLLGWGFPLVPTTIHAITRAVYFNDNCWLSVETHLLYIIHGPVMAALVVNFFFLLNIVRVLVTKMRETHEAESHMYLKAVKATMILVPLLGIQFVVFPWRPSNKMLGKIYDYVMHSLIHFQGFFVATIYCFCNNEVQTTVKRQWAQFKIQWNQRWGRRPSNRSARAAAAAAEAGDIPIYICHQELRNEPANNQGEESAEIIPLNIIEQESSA
In short: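 Peptide-induced cAMP in hCTR2-expressing COS7 cells, 15 min at 37° C with phosphodiesterase inhibitor IBMX (100 µM), detected by AlphaScreen; potency from 4PL curves.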

[2] = Solubility assessment (turbidity absorbance at 325 nm); type: physicochemical; conditions: stock 2 mg/ml diluted 1:1, ambient temperature (typically 25°C), n=1; for Solubility, Acetate buffer pH 4: 100 mM acetate buffer pH 4.0; for Solubility, Acetate buffer pH 5: 100 mM acetate buffer pH 5.0; for Solubility, Histidine buffer pH 6: 100 mM histidine buffer pH 6.0; for Solubility, Histidine buffer pH 7: 100 mM histidine buffer pH 7.0; for Solubility, Phosphate buffer pH 6: 100 mM phosphate buffer pH 6.0; for Solubility, Phosphate buffer pH 7: 100 mM phosphate buffer pH 7.0; for Solubility, Phosphate buffer pH 7.5: 100 mM phosphate buffer pH7.5
In short: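 Turbidity read as absorbance at 325 nm (also 280 nm), single samples at ambient temperature (typically 25°C); ≤ 0.02 units counts as ≥ 1 mg/ml soluble. Samples made by 1:1 dilution of a 2 mg/ml acidic stock into 100 mM acetate, histidine or phosphate buffers, pH 4.0–7.5.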

[3] = cAMP induction in COS7 cells expressing hCTR2, average of a minimum of 3 determinations, read-out: hCTR2 EC50

Row | SMILES | EC50 [1, 3] [nM] | Solubility, Acetate buffer pH 4 [2] | Solubility, Acetate buffer pH 5 [2] | Solubility, Histidine buffer pH 6 [2] | Solubility, Histidine buffer pH 7 [2] | Solubility, Phosphate buffer pH 6 [2] | Solubility, Phosphate buffer pH 7 [2] | Solubility, Phosphate buffer pH 7.5 [2] | EC50 [1] [nM]
1 | CC[C@H](C)[C@@H](C(=O)N[C@@H](CC(C)C)C(=O)N[C@H](CO)C(=O)N[C@@H](CO)C(=O)N[C@H](C(=O)N[C@@H](CC(N)=O)C(=O)N[C@H](C(=O)NCC(=O)N[C@@H](CO)C(=O)N[C@@H](CC(N)=O)C(=O)N[C@H](C(=O)N1CCC[C@H]1C(N)=O)[C@@H](C)O)C(C)C)[C@@H](C)O)N(C)C(=O)CN(C)C(=O)[C@@H](Cc1ccccc1)NC(=O)[C@H](CC(N)=O)NC(=O)[C@H](CC(N)=O)NC(=O)[C@H](CO)NC(=O)[C@H](CO)NC(=O)[C@H](Cc1c[nH]cn1)NC(=O)[C@H](Cc1c[nH]cn1)NC(=O)[C@H](CC(C)C)NC(=O)[C@H](Cc1ccccc1)NC(=O)[C@H](CCC(=O)O)NC(=O)[C@H](C)NC(=O)[C@H](CC(C)C)NC(=O)[C@H](CCCNC(=N)N)NC(=O)[C@H](CCC(N)=O)NC(=O)[C@@H](NC(=O)[C@H](C)NC(=O)[C@@H]1CSSC[C@H](NC(=O)[C@H](CCCNC(=N)N)NC(=O)CC[C@H](NC(=O)CCCCCCCCCCCCCCCCCCC(=O)O)C(=O)O)C(=O)N[C@@H](CC(N)=O)C(=O)N[C@@H]([C@@H](C)O)C(=O)N[C@@H](C)C(=O)N[C@@H]([C@@H](C)O)C(=O)N1)[C@@H](C)O [Compound 60, [19CD]-isoGlu-RC()NTATC()ATQRLAEFLHHSSNN-DPhe-Gly(Me)-Ile(Me)-L-DSer-STNVGSNTP-NH2] ({C20 diacid-γGlu}-RCNTATCATQRLAEFLHHSSNN[dF][Sar][NMeI]L[dS]STNVGSNTP-NH2; disulfide 2-7) | 0.12 | SS (SS indicates solubility ≥ 1mg/ml) | SS (SS indicates solubility ≥ 1mg/ml) | SS (SS indicates solubility ≥ 1mg/ml) | SS (SS indicates solubility ≥ 1mg/ml) | SS (SS indicates solubility ≥ 1mg/ml) | II (II indicates solubility ≤ 1 mg/ml) | SS (SS indicates solubility ≥ 1mg/ml) | 
2 | CC[C@H](C)[C@@H](C(=O)N[C@@H](CC(C)C)C(=O)N[C@@H](CO)C(=O)N[C@@H](CO)C(=O)N[C@H](C(=O)N[C@@H](CC(N)=O)C(=O)N[C@H](C(=O)NCC(=O)N[C@@H](CO)C(=O)N[C@@H](CC(N)=O)C(=O)N[C@H](C(=O)N1CCC[C@H]1C(N)=O)[C@@H](C)O)C(C)C)[C@@H](C)O)N(C)C(=O)CN(C)C(=O)[C@H](Cc1ccccc1)NC(=O)[C@H](CC(N)=O)NC(=O)[C@H](CC(N)=O)NC(=O)[C@H](CO)NC(=O)[C@H](Cc1c[nH]cn1)NC(=O)[C@H](Cc1c[nH]cn1)NC(=O)[C@H](CC(C)C)NC(=O)[C@H](Cc1ccccc1)NC(=O)[C@H](CCC(=O)O)NC(=O)[C@H](C)NC(=O)[C@H](CC(C)C)NC(=O)[C@H](CCCNC(=N)N)NC(=O)[C@H](CCC(N)=O)NC(=O)[C@@H](NC(=O)[C@H](C)NC(=O)[C@@H]1CSSC[C@H](NC(=O)[C@H](CCCNC(=N)N)NC(=O)CC[C@H](NC(=O)CCCCCCCCCCCCCCCCCCC(=O)O)C(=O)O)C(=O)N[C@@H](CC(N)=O)C(=O)N[C@@H]([C@@H](C)O)C(=O)N[C@@H](C)C(=O)N[C@@H]([C@@H](C)O)C(=O)N1)[C@@H](C)O [Compound 46, [19CD]-isoGlu-RC()NTATC()ATQRLAEFLHHSNNF-Gly(Me)-Ile(Me)-LSSTNVGSNTP-NH2] ({C20 diacid-γGlu}-RCNTATCATQRLAEFLHHSNNF[Sar][NMeI]LSSTNVGSNTP-NH2; disulfide 2-7) | 0.15 | II (II indicates solubility ≤ 1 mg/ml) | II (II indicates solubility ≤ 1 mg/ml) | II (II indicates solubility ≤ 1 mg/ml) | II (II indicates solubility ≤ 1 mg/ml) | II (II indicates solubility ≤ 1 mg/ml) | II (II indicates solubility ≤ 1 mg/ml) | II (II indicates solubility ≤ 1 mg/ml) | 
3 | CC[C@@H](C)[C@@H](NC(=O)[C@H](C)NC(=O)CN(C)C(=O)[C@H](Cc1ccccc1)NC(=O)[C@H](CC(N)=O)NC(=O)[C@H](CC(N)=O)NC(=O)[C@H](CO)NC(=O)[C@H](CO)NC(=O)[C@H](Cc1c[nH]cn1)NC(=O)[C@H](Cc1c[nH]cn1)NC(=O)[C@H](CC(C)C)NC(=O)[C@H](Cc1ccccc1)NC(=O)[C@H](CCC(=O)O)NC(=O)[C@H](C)NC(=O)[C@H](CC(C)C)NC(=O)[C@H](CCCNC(=N)N)NC(=O)[C@H](CCC(N)=O)NC(=O)[C@@H](NC(=O)[C@H](C)NC(=O)[C@@H]1CSSC[C@H](NC(=O)[C@H](CCCNC(=N)N)NC(=O)CC[C@H](NC(=O)CCCCCCCCCCCCCCCCCCC(=O)O)C(=O)O)C(=O)N[C@@H](CC(N)=O)C(=O)N[C@@H]([C@@H](C)O)C(=O)N[C@@H](C)C(=O)N[C@@H]([C@@H](C)O)C(=O)N1)[C@@H](C)O)C(=O)N[C@@H](CC(C)C)C(=O)N[C@@H](CO)C(=O)N[C@@H](CO)C(=O)N[C@H](C(=O)N[C@@H](CC(N)=O)C(=O)N[C@H](C(=O)NCC(=O)N[C@@H](CO)C(=O)N[C@@H](CC(N)=O)C(=O)N[C@H](C(=O)N1CCC[C@H]1C(N)=O)[C@@H](C)O)C(C)C)[C@@H](C)O [Compound 28, [19CD]-isoGlu-RC()NTATC()ATQRLAEFLHHSSNNF-Gly(Me)-A-DIle-LSSTNVGSNTP-NH2] ({C20 diacid-γGlu}-RCNTATCATQRLAEFLHHSSNNF[Sar]A[dI]LSSTNVGSNTP-NH2; disulfide 2-7) |  | SS (SS indicates solubility ≥ 1mg/ml) | SS (SS indicates solubility ≥ 1mg/ml) | SS (SS indicates solubility ≥ 1mg/ml) | SS (SS indicates solubility ≥ 1mg/ml) | SS (SS indicates solubility ≥ 1mg/ml) | SS (SS indicates solubility ≥ 1mg/ml) | SS (SS indicates solubility ≥ 1mg/ml) | 0.16
